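1) Cells in 96-well plates. 2) Compound, 48 h, 5 concentrations. 3) Linear interpolation between surrounding doses. 4) Unreached endpoint = highest concentration. TGI is the concentration that stops growth completely.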
Assays:
Test in all cases: inhibition of tumour cell growth, NCI panel, 48 h
[1] = test system: OVCAR-8 ovarian
[2] = test system: MALME-3M melanoma
[3] = test system: NCI-H522 lung
[4] = test system: K-562 leukemia
[5] = test system: SR leukemia
[6] = test system: IGROV1 ovarian
[7] = test system: SK-MEL-5 melanoma
[8] = test system: HT29 colon
[9] = test system: SF-539 CNS
[10] = test system: COLO 205 colon
[11] = test system: OVCAR-3 ovarian
[12] = test system: DLD-1 colon
[13] = test system: CCRF-CEM leukemia
[14] = test system: TK-10 renal
[15] = test system: SK-MEL-2 melanoma
[16] = test system: HCT-116 colon
[17] = test system: KM20L2 colon
[18] = test system: SW-620 colon
[19] = test system: UO-31 renal
[20] = test system: M19-MEL melanoma
[21] = test system: SNB-19 CNS
[22] = test system: NCI-H460 lung
[23] = test system: UACC-257 melanoma
[24] = test system: MOLT-4 leukemia
[25] = test system: OVCAR-5 ovarian
[26] = test system: A549 NSCLC
[27] = test system: SN12C renal
[28] = test system: SK-OV-3 ovarian
[29] = test system: A498 renal
[30] = test system: UACC-62 melanoma
[31] = test system: 786-0 renal
[32] = test system: ACHN renal
[33] = test system: RPMI-8226 leukemia
[34] = test system: HCC-2998 colon
[35] = test system: OVCAR-4 ovarian
[36] = test system: SF-268 CNS
[37] = test system: KM12 colon
[38] = test system: EKVX NSCLC
[39] = test system: SF-295 CNS
[40] = test system: SK-MEL-28 melanoma
[41] = test system: NCI-H23 lung
[42] = test system: DMS 114 small cell lung
[43] = test system: RXF 393 renal
[44] = test system: HOP-62 NSCLC
[45] = test system: HL-60(TB) leukemia
[46] = test system: MDA-MB-435
[47] = test system: PC-3 prostate
[48] = test system: LOX IMVI melanoma
[49] = test system: NCI/ADR-RES ovarian
[50] = test system: BT-549 breast
[51] = test system: CAKI-1 renal
[52] = test system: DU-145 prostate
[53] = test system: HS 578T breast
[54] = test system: SNB-75 CNS
[55] = test system: M14 melanoma
[56] = test system: HCT-15 colon
[57] = test system: NCI-H226 lung
[58] = test system: MDA-MB-231 breast
[59] = test system: MDA-N
[60] = test system: HOP-92 NSCLC
[61] = test system: T-47D breast
[62] = test system: U251 CNS
[63] = test system: MCF7 breast

In the case of `C[N+](C)(C)CC(=O)N/N=C(/Cc1nc2ccc(Cl)cc2[nH]c1=O)C1=NS(=O)(=O)c2cc(S(N)(=O)=O)c(Cl)cc2N1`, the TGI [1] is reported as > 100 µM, the TGI [2] is reported as > 100 µM and the TGI [3] is reported as > 100 µM. The TGI [4] was > 100 µM, the TGI [5] was > 100 µM and the TGI [6] was > 100 µM. For the same compound, the TGI [7] was > 100 µM, the TGI [8] was > 100 µM and the TGI [9] was > 100 µM. For the same compound, the TGI [10] was > 100 µM, the TGI [11] was > 100 µM and the TGI [12] was > 100 µM. The TGI [13] was > 100 µM, the TGI [14] was > 100 µM and the TGI [15] was > 100 µM. For the same compound, the TGI [16] was > 100 µM, the TGI [17] was > 100 µM and the TGI [18] was > 100 µM. For the same compound, the TGI [19] was > 100 µM, the TGI [20] was > 100 µM and the TGI [21] was > 100 µM. For the same compound, the TGI [22] was > 100 µM, the TGI [23] was > 100 µM and the TGI [24] was > 100 µM. The TGI [25] was > 100 µM, the TGI [26] was > 100 µM and the TGI [27] was > 100 µM. The TGI [28] was > 100 µM, the TGI [29] was > 100 µM and the TGI [30] was > 100 µM. The TGI [31] was > 100 µM, the TGI [32] was > 100 µM and the TGI [33] was > 100 µM. For the same compound, the TGI [34] was > 100 µM, the TGI [35] was > 100 µM and the TGI [36] was > 100 µM. For the same compound, the TGI [37] was > 100 µM, the TGI [38] was > 100 µM and the TGI [39] was > 100 µM. For the same compound, the TGI [40] was > 100 µM, the TGI [41] was > 100 µM and the TGI [42] was > 100 µM. The TGI [43] was > 100 µM, the TGI [44] was > 100 µM and the TGI [45] was > 100 µM.

With `CCCCCCCCCCCCCCCCCCNc1ccn(C2OC(CO)C(OP(=O)(O)OCC(COP(=O)(O)OCC3OC(n4cc(F)c(NCCCCCCCCCCCCCCCCCC)nc4=O)CC3O)OC(=O)CCCCCCCCCCCCCCC)C2O)c(=O)n1` (stereo not drawn) the TGI [1] was > 100 µM, the TGI [2] was > 100 µM and the TGI [46] was > 100 µM. The TGI [3] was > 100 µM, the TGI [47] was > 100 µM and the TGI [48] was > 100 µM. For the same compound, the TGI [4] was > 100 µM, the TGI [5] was > 100 µM and the TGI [6] was > 100 µM. For the same compound, the TGI [49] was > 100 µM, the TGI [50] was > 100 µM and the TGI [7] was > 100 µM. The TGI [8] was > 100 µM, the TGI [9] was > 100 µM and the TGI [51] was > 100 µM. The TGI [10] was > 100 µM, the TGI [52] was > 100 µM and the TGI [11] was > 100 µM. The TGI [13] was > 100 µM, the TGI [14] was > 100 µM and the TGI [53] was > 100 µM. For the same compound, the TGI [54] was > 100 µM, the TGI [15] was > 100 µM and the TGI [16] was > 100 µM. For the same compound, the TGI [18] was > 100 µM, the TGI [19] was > 100 µM and the TGI [55] was > 100 µM. The TGI [21] was > 100 µM, the TGI [22] was > 100 µM and the TGI [23] was > 100 µM. For the same compound, the TGI [24] was > 100 µM, the TGI [25] was > 100 µM and the TGI [26] was > 100 µM. The TGI [27] was > 100 µM, the TGI [56] was > 100 µM and the TGI [57] was > 100 µM. The TGI [28] was > 100 µM, the TGI [29] was > 100 µM and the TGI [30] was > 100 µM. For the same compound, the TGI [31] was > 100 µM, the TGI [32] was > 100 µM and the TGI [58] was > 100 µM. The TGI [33] was > 100 µM, the TGI [34] was > 100 µM and the TGI [35] was > 100 µM. For the same compound, the TGI [59] was > 100 µM, the TGI [60] was > 100 µM and the TGI [36] was > 100 µM. For the same compound, the TGI [37] was > 100 µM, the TGI [61] was > 100 µM and the TGI [38] was > 100 µM. For the same compound, the TGI [62] was > 100 µM, the TGI [39] was > 100 µM and the TGI [40] was > 100 µM. For the same compound, the TGI [63] was > 100 µM, the TGI [41] was > 100 µM and the TGI [43] was > 100 µM. For the same compound, the TGI [44] was > 100 µM and the TGI [45] was > 100 µM.

`CC(C)OC(=O)c1ccc(CCc2cc(O)c(Br)cc2O)cc1` gave a TGI [1] of 29.5 µM, a TGI [2] of 31.1 µM and a TGI [46] of 20.8 µM. For the same compound, the TGI [3] was 23.8 µM, the TGI [47] was 19.2 µM and the TGI [48] was 20.8 µM. For the same compound, the TGI [4] was > 58.9 µM, the TGI [5] was 64.9 µM and the TGI [6] was 23.1 µM. It also gave a TGI [49] of 25.5 µM, a TGI [50] of 30 µM and a TGI [7] of 28.3 µM. The TGI [8] was 37.4 µM, the TGI [9] was 15.7 µM and the TGI [51] was 25 µM. The TGI [10] was 28.7 µM, the TGI [52] was 28.6 µM and the TGI [11] was 19.5 µM. It also gave a TGI [13] of 14.3 µM, a TGI [14] of 30.6 µM and a TGI [53] of 42.1 µM. It also gave a TGI [54] of 46.5 µM, a TGI [15] of 26.7 µM and a TGI [16] of 25.3 µM. It also gave a TGI [18] of 22 µM, a TGI [19] of 10.2 µM and a TGI [55] of 29.9 µM. It also gave a TGI [21] of 27.9 µM, a TGI [22] of 34.5 µM and a TGI [23] of 26.4 µM. The TGI [24] was 52.1 µM, the TGI [25] was 31.8 µM and the TGI [26] was 44.8 µM. It also gave a TGI [27] of 28.9 µM, a TGI [56] of 14 µM and a TGI [57] of 39.8 µM. The TGI [28] was 35.6 µM, the TGI [29] was 41.8 µM and the TGI [30] was 34.4 µM. The TGI [31] was 25.4 µM, the TGI [32] was 31.9 µM and the TGI [58] was 26.7 µM. For the same compound, the TGI [33] was 8.18 µM, the TGI [34] was 29.6 µM and the TGI [35] was 5.54 µM. For the same compound, the TGI [59] was 24 µM, the TGI [60] was 35.2 µM and the TGI [36] was 25.6 µM. It also gave a TGI [37] of 18.1 µM, a TGI [61] of 53.2 µM and a TGI [38] of 29.4 µM. For the same compound, the TGI [62] was 17.5 µM, the TGI [39] was 32.3 µM and the TGI [40] was 26.9 µM. For the same compound, the TGI [63] was 29.4 µM, the TGI [41] was 22.8 µM and the TGI [43] was 28.3 µM. It also gave a TGI [44] of 24.7 µM and a TGI [45] of 38.9 µM.

Source: PubChem BioAssay (NCI)
